Test results published in patent US11013780B2, “Methods of treating female infertility” (Myovant Sciences GmbH, priority 2016, dated 2021).
Where a SMILES comes first, the peptide text is derived from it. [ ]: non-standard residue; d: D form. Arg(Me) = CNC(=N)NCCC[C@H](N)C(=O)O; Hyp = O=C(O)[C@@H]1C[C@@H](O)CN1; azaGly = NNC(=O)O

Tested on: serum LH, FSH and PSA
Experiment: Multiple-dose pharmacodynamics, Japanese prostate cancer patients
Assay type: in vivo, human
Experimental: The study was a phase 1 study in hormone naïve Japanese prostate cancer patients. Six patients received API-MA doses of 0.5 mg (3 patients) and 1.0 mg (3 patients) administered via 2-hour SC infusion once daily for 14 days. Summary statistics of serum concentrations of LH, FSH, GH, PRL, and TSH, as well as plasma concentration of ACTH and serum concentration of prostate-specific antigen (PSA), at baseline and at each evaluation point, changes from baseline were calculated for each dose, and the data (individual values and mean±standard deviation) were plotted against time for each dose. […] Changes in serum LH were similar between 0.5 and 1.0 mg of API-MA (data for API-MA 1.0 mg/day dose group not shown).

[1] = Japanese prostate cancer patients, 0.5 mg/day 2-hour SC infusion for 14 days

CC(=O)O.CNC(=N)NCCC[C@H](NC(=O)[C@H](CC(C)C)NC(=O)NNC(=O)[C@H](Cc1ccccc1)NC(=O)[C@@H](NC(=O)[C@H](CC(N)=O)NC(=O)[C@@H]1C[C@@H](O)CN1C(=O)[C@@H](Cc1ccc(O)cc1)NC(C)=O)[C@@H](C)O)C(=O)N[C@@H](Cc1c[nH]c2ccccc12)C(N)=O [API-MA, 2-(N-Acetyl-D-tyrosyl-trans-4-hydroxy-L-prolyl-Lasparaginyl-L-threonyl-L-phenylalanyl)-hydrazinocarbonyl-L-leucyl-Nω-methyl-L-arginyl-L-tryptophanamide monoacetate] (Ac-[dY][Hyp]NTF[azaGly]L[Arg(Me)]W-NH2)
Serum FSH levels [1]: completely suppressed from Day 6 to Day 16 | Serum LH levels [1]: completely suppressed from Day 6 to Day 16 | Serum PSA decrease compared to baseline (patients receiving 0.5 mg): approximately 40%
